# Measurements as given in patent publication US20220305178A1, “CANCER TREATMENT BY IN VITRO AMINO ACID DEPRIVATION” (YUANHENG BIOMEDICAL CO., LTD., priority 2021, published 2022).
# Tests used:
# [1] = Modified peritoneal dialysis with artificial kidneys of different effective membrane areas (Example 4); type: biochemical; details: for Arg (%) of the peritoneal fluid / Arg (μM) of the peritoneal fluid: non-target amino acid
# Description: (§1) RPMI 1640 Medium was ten times diluted to obtain 1 L of RPMI 1640 diluent with Dianeal PD-2 (Peritoneal Dialysis Solution) and to serve as a peritoneal fluid for the control group 2. 1 L and 2 L of the same RPMI 1640 diluent was prepared for the Experimental group 2 and Experimental group 3, respectively.
# (§2) The flow rate or circulation speed of the dialysate was 250 ml/min. Before the peritoneal fluid (RPMI 1640 diluent) entered the dialysis machine, RPMI 1640 diluent was also used to clean the circulation pipeline of the dialysis machine, to achieve the required equilibrium of the artificial kidney, and to get rid of all bubbles in the artificial kidney. Besides, the artificial kidneys of the control group 2 and the experimental group 2 were NV-15U with the effective membrane area of 1.5 m^2; and the artificial kidney of the experimental group 3 was NV-21U with the effective membrane area of 2.1 m^2.
# (§3) The dialysate is DIANEAL PD-2 Peritoneal Dialysis Solution with 1.5% Dextrose (Baxter). The target amino acid is Asparagine (Asn), and the concentration of Asparaginase in the dialysate is 1 K.U./ml in the Experimental groups 2 & 3. No Asparaginase was added in the control group 2.
# (§4) The dialysis temperature was set to be 37° C. The peritoneal fluid (RPMI 1640 diluent) was first pumped into slot A for temporary storage and then entered the artificial kidney. After peritoneal fluid (RPMI 1640 diluent) left the artificial kidney, peritoneal fluid (RPMI 1640 diluent) further entered slot B for temporary storage, and then left the dialysis machine, e.g. the peritoneal fluid (RPMI 1640 diluent) was pumped back to the peritoneal cavity of the patient. The concentrations of amino acids in the peritoneal fluid before and after dialysis were studied by using Amino Acid Analysis Systems (Waters UPLC® Amino Acid Analysis (AAA) Solution) and the result was shown in Table 3 to Table 5.
# Example 4 was carried out with the method the same as Example 3 except that the artificial kidneys with different effective membrane areas were adopted. The concentrations of amino acids in the peritoneal fluid before and after dialysis were studied and the result was shown in Table 6.
# [2] = Modified peritoneal dialysis of peritoneal fluid (RPMI 1640 diluent) with Asparaginase in the dialysate (Example 3); type: biochemical
# Description: as §1, §2, §3, §4
# [3] = dialyzer BG-1.6U (1.6 m^2), dialysis time 0 min
# [4] = dialyzer BG-1.6U (1.6 m^2), dialysis time 3 min
# [5] = dialyzer BG-1.6U (1.6 m^2), dialysis time 5 min
# [6] = dialyzer BG-1.6U (1.6 m^2), dialysis time 10 min
# [7] = dialyzer BG-1.6U (1.6 m^2), dialysis time 20 min
# [8] = dialyzer BG-1.8U (1.8 m^2), dialysis time 0 min
# [9] = dialyzer BG-1.8U (1.8 m^2), dialysis time 3 min
# [10] = dialyzer BG-1.8U (1.8 m^2), dialysis time 5 min
# [11] = dialyzer BG-1.8U (1.8 m^2), dialysis time 10 min
# [12] = dialyzer BG-1.8U (1.8 m^2), dialysis time 20 min
# [13] = dialyzer polyflux-140H (1.4 m^2), dialysis time 0 min
# [14] = dialyzer polyflux-140H (1.4 m^2), dialysis time 3 min
# [15] = dialyzer polyflux-140H (1.4 m^2), dialysis time 5 min
# [16] = dialyzer polyflux-140H (1.4 m^2), dialysis time 10 min
# [17] = dialyzer polyflux-140H (1.4 m^2), dialysis time 20 min
substance,measurement,setting,value
Asparaginase,concentration of non-target amino acid maintained,"[1]; Example 4, artificial kidneys 1.4 to 1.8 m^2",about 50%
same,Asn (%) of the peritoneal fluid,[1]; [3],100%
same,Asn (μM) of the peritoneal fluid,[1]; [3],45.5 µM
same,Asn (%) of the peritoneal fluid,[1]; [4],73.90%
same,Asn (μM) of the peritoneal fluid,[1]; [4],33.6 µM
same,Arg (%) of the peritoneal fluid,[1]; [3],100%
same,Arg (μM) of the peritoneal fluid,[1]; [3],95.3 µM
same,Arg (%) of the peritoneal fluid,[1]; [4],86.3%
same,Arg (μM) of the peritoneal fluid,[1]; [4],82.2 µM
same,Arg (%) of the peritoneal fluid,[1]; [5],74.8%
same,Arg (μM) of the peritoneal fluid,[1]; [5],71.3 µM
same,Arg (%) of the peritoneal fluid,[1]; [6],65.8%
same,Arg (μM) of the peritoneal fluid,[1]; [6],62.7 µM
same,Arg (%) of the peritoneal fluid,[1]; [7],49.7%
same,Arg (μM) of the peritoneal fluid,[1]; [7],47.4 µM
same,Asn (%) of the peritoneal fluid,[1]; [8],100%
same,Asn (μM) of the peritoneal fluid,[1]; [8],36.7 µM
same,Arg (%) of the peritoneal fluid,[1]; [8],100%
same,Arg (μM) of the peritoneal fluid,[1]; [8],89.0 µM
same,Arg (%) of the peritoneal fluid,[1]; [9],75.1%
same,Arg (μM) of the peritoneal fluid,[1]; [9],66.8 µM
same,Arg (%) of the peritoneal fluid,[1]; [10],76.5%
same,Arg (μM) of the peritoneal fluid,[1]; [10],68.0 µM
same,Arg (%) of the peritoneal fluid,[1]; [11],61.5%
same,Arg (μM) of the peritoneal fluid,[1]; [11],54.7 µM
same,Arg (%) of the peritoneal fluid,[1]; [12],61.2%
same,Arg (μM) of the peritoneal fluid,[1]; [12],54.4 µM
same,Asn (%) of the peritoneal fluid,[1]; [13],100%
same,Asn (μM) of the peritoneal fluid,[1]; [13],36.9 µM
same,Asn (%) of the peritoneal fluid,[1]; [14],85.8%
same,Asn (μM) of the peritoneal fluid,[1]; [14],31.6 µM
same,Asn (%) of the peritoneal fluid,[1]; [15],62.3%
same,Asn (μM) of the peritoneal fluid,[1]; [15],23.0 µM
same,Arg (%) of the peritoneal fluid,[1]; [13],100%
same,Arg (μM) of the peritoneal fluid,[1]; [13],93.7 µM
same,Arg (%) of the peritoneal fluid,[1]; [14],93.6%
same,Arg (μM) of the peritoneal fluid,[1]; [14],87.6 µM
same,Arg (%) of the peritoneal fluid,[1]; [15],84.8%
same,Arg (μM) of the peritoneal fluid,[1]; [15],79.4 µM
same,Arg (%) of the peritoneal fluid,[1]; [16],71.4%
same,Arg (μM) of the peritoneal fluid,[1]; [16],66.9 µM
same,Arg (%) of the peritoneal fluid,[1]; [17],57.9%
same,Arg (μM) of the peritoneal fluid,[1]; [17],54.2 µM
same,concentration of Asn of the peritoneal fluid,"[2]; experimental group 2, Asparaginase 1 K.U./ml in dialysate, NV-15U 1.5 m^2, dialysis time 0 min",27.284 µM
same,concentration of Asn of the peritoneal fluid,"[2]; experimental group 2, Asparaginase 1 K.U./ml in dialysate, NV-15U 1.5 m^2, dialysis time 3 min",23.254 µM
same,concentration of Asn of the peritoneal fluid,"[2]; experimental group 2, Asparaginase 1 K.U./ml in dialysate, NV-15U 1.5 m^2, dialysis time 5 min",9.088 µM
same,concentration of Arg of the peritoneal fluid,"[2]; experimental group 2, Asparaginase 1 K.U./ml in dialysate, NV-15U 1.5 m^2, non-target amino acid, dialysis time 0 min",102.6 µM
same,concentration of Arg of the peritoneal fluid,"[2]; experimental group 2, Asparaginase 1 K.U./ml in dialysate, NV-15U 1.5 m^2, non-target amino acid, dialysis time 3 min",90.0 µM
same,concentration of Arg of the peritoneal fluid,"[2]; experimental group 2, Asparaginase 1 K.U./ml in dialysate, NV-15U 1.5 m^2, non-target amino acid, dialysis time 5 min",70.5 µM
same,dialysis time within which Arginine (Arg) is lower to 50% of the original concentration,"[2]; experimental group 2, NV-15U 1.5 m^2",≤ 10 min
same,concentration of Asparagine (Asn) relative to original,"[2]; experimental group 2, within 5 mins of dialysis",less than 50%
same,concentration of Asn of the peritoneal fluid,"[2]; experimental group 3, Asparaginase 1 K.U./ml in dialysate, NV-21U 2.1 m^2, dialysis time 0 min",30.674 µM
same,concentration of Arg of the peritoneal fluid,"[2]; experimental group 3, Asparaginase 1 K.U./ml in dialysate, NV-21U 2.1 m^2, non-target amino acid, dialysis time 0 min",83.86 µM
same,concentration of Arg of the peritoneal fluid,"[2]; experimental group 3, Asparaginase 1 K.U./ml in dialysate, NV-21U 2.1 m^2, non-target amino acid, dialysis time 3 min",70.12 µM
same,concentration of Arg of the peritoneal fluid,"[2]; experimental group 3, Asparaginase 1 K.U./ml in dialysate, NV-21U 2.1 m^2, non-target amino acid, dialysis time 5 min",37.31 µM
same,concentration of Arg of the peritoneal fluid,"[2]; experimental group 3, Asparaginase 1 K.U./ml in dialysate, NV-21U 2.1 m^2, non-target amino acid, dialysis time 10 min",19.99 µM
same,dialysis time within which Arginine (Arg) is lower to 50% of the original concentration,"[2]; experimental group 3, NV-21U 2.1 m^2",≤ 5 min
same,dialysis time within which Asparagine (Asn) is undetectable,"[2]; experimental group 3, NV-21U 2.1 m^2, peritoneal fluid, LOD of Asparagine 5 μM",≤ 3 min
